In patent publication US12403086B2, “Solid drug tablets for implantable drug delivery devices” (TARIS Biomedical LLC, priority 2009, dated 2025):

Tests used:
[1] = In vitro drug release from silicone tube devices loaded with solid lidocaine tablets (diffusion through the wall of the drug reservoir); assay type: physicochemical; details: silicone tube ID about 0.060 in, OD 0.076 in, length about 3 cm, payload about 60 mg, no aperture; in vitro in water at about 37° C.
Description: A study was performed to determine the feasibility of delivering drug through the wall of a drug reservoir via diffusion. Devices were formed form silicone tubes having an inner diameter of about 0.060 inches, an outer diameter of 0.076 inches, and a length of about 3 cm. The devices were loaded with solid drug tablets of lidocaine, for a total payload of about 60 mg. Some of the devices included an aperture formed through the tube wall, the aperture having a diameter of 150 μm. These devices were loaded with solid tablets of either lidocaine hydrochloride monohydrate or a combination of lidocaine hydrochloride monohydrate and lidocaine base. […] The devices were tested in vitro in water at about 37° C.

[2] = In vitro drug release from silicone tube devices loaded with lidocaine base tablets, with varying numbers of apertures; assay type: physicochemical; details: silicone tubes about 3 cm, payload about 60 mg, in vitro in water at about 37° C.
Description: Another study was performed to investigate the feasibility of delivering drug from a device through both a wall of a drug reservoir and from an aperture in the wall of the drug reservoir. Devices were formed form silicone tubes having a length of about 3 cm. The devices were loaded with solid drug tablets of lidocaine base, for a total payload of about 60 mg. […] The devices were tested in vitro in water at about 37° C.

In the case of `CCN(CC)CC(=O)Nc1c(C)cccc1C` [lidocaine base, lidocaine], the “delivery of drug via diffusion through the silicone wall of the drug reservoir” value [1] is reported as “feasible to deliver drug via diffusion through a silicone wall without an aperture”, the “release from silicone tube without apertures” value ([2]; no apertures (ID 0.060/OD 0.076 in and ID 0.062/OD 0.095 in)) is reported as “can be released from a silicone tube without any apertures” and the “effect of apertures on release rate” value ([2]; 0, 1 (150 μm), 2, 30 or 60 (360 μm) apertures) is reported as “release rate can be increased by adding apertures to the device”.
